In patent publication US20220175916A1, “METHODS AND COMPOSITIONS FOR TREATING CHRONIC EFFECTS OF RADIATION AND CHEMICAL EXPOSURE” (priority 2018, published 2022):

Test system: pancreatic cancer PANG-1 cell line
Assay: Fluorescence microscopy study of etoposide-induced senescence and anti-AGE antibody staining
Assay type: cell-based
Conditions: 12.5 μM for 24 hours
Protocol: Cells from the pancreatic cancer PANG-1 cell line were treated with 12.5 μM etoposide, a chemotherapeutic agent, for 24 hours to induce senescence. Control cells were treated with dimethyl sulfoxide (DMSO) vehicle for 24 hours. The cells were then stained with a senescence β-galactosidase staining kit, an anti-AGE antibody conjugated to green fluorescent protein (GFP) or an anti-AGE antibody conjugated to GFP and 4′,6-diamidino-2-phenylindole (DAPI). GFP-stained cells appear green and DAPI-stained cells appear blue under fluorescence microscopy.
(§1) FIG. 2A illustrates the untreated cells after staining with the senescence β-galactosidase staining kit. FIG. 2B illustrates the untreated cells after staining with the anti-AGE antibody conjugated to GFP. FIG. 2C illustrates the untreated cells after staining with the anti-AGE antibody conjugated to GFP-DAPI. FIGS. 2B and 2C have been brightened to enhance contrast. The untreated cells appear relatively uniform in size and shape and are densely packed.
as §1, with “2D” for “2A”, “etoposide-treated” for “untreated”, “2E” for “2B”, “2F” for “2C”, “contrast.” for “contrast. The untreated cells appear relatively uniform in size and shape and are densely packed.”

Question: Which “Appearance of treated cells (senescence)” value does the source give for `COc1cc([C@@H]2c3cc4c(cc3[C@@H](O[C@@H]3O[C@@H]5CO[C@@H](C)O[C@H]5[C@H](O)[C@H]3O)[C@H]3COC(=O)[C@H]23)OCO4)cc(OC)c1O` [etoposide] here?
Answer: irregular appearance, are larger in size and are loosely packed
